Activity calls are given as the source filed them.
Assays:
[1] = ZM109 Env clade C HIV-1 fusion inhibitors, dose response, HeLa effector, CEM target cells, luciferase, cherry-pick (AID 652058); assay type: functional, cell-based
[2] = off-target signal loss in HeLa-CEM21 co-culture – HeLa F-luc CTL cells, cherry-picked, counter-screen for HIV-1 Env fusion inhibitor project, dose response (AID 652040); assay type: functional, cell-based;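 further: potency for signal decrease marking cytotoxic or nonspecific inhibition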
HEK293 [3] = test: cells; details: Homo sapiens
HEK293 [4] = test: cells; details: Homo sapiens; remark: listed apart in the source
[5] = inhibitors of HIV Env-driven cell fusion, dose response, cherry-pick (AID 652057); assay type: functional, cell-based
[6] = inhibitors of clade B AD8 Env fusion, dose response, cell-based, cherry-pick (AID 652062); assay type: functional;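 further: luciferase signal from cell-cell fusion driven by HIV-1 clade B AD8 Env; potency is for inhibitors of fusion seen as a drop in luminescence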
[7] = molecular target: T1, Intestinal-type alkaline phosphatase (Homo sapiens, UniProt P09923); test: human IAP activators, dose response, biochemical, luminescent, uHTS hits, set 2 (AID 488817); assay type: functional;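 further: potency of activators that raise enzyme activity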
[8] = molecular target: Intestinal-type alkaline phosphatase (Mus musculus, UniProt P24822); test: PubChem AID 488875; assay type: functional
[9] = molecular target: T1, Intestinal-type alkaline phosphatase; test: human intestinal alkaline phosphatase activators, dose response, biochemical, luminescence, uHTS hits (AID 463120); assay type: functional
[10] = molecular target: T2, Alkaline phosphatase, tissue-nonspecific isozyme (Homo sapiens, UniProt P05186); test: TNAP enzyme activators, dose response, selectivity assay for human IAP activator project, biochemical, TNAP isozyme, human IAP uHTS hits (AID 488886); assay type: functional;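 further: potency of compounds raising TNAP activity as a selectivity check on IAP activators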
T2 sequence (P05186 whole entry): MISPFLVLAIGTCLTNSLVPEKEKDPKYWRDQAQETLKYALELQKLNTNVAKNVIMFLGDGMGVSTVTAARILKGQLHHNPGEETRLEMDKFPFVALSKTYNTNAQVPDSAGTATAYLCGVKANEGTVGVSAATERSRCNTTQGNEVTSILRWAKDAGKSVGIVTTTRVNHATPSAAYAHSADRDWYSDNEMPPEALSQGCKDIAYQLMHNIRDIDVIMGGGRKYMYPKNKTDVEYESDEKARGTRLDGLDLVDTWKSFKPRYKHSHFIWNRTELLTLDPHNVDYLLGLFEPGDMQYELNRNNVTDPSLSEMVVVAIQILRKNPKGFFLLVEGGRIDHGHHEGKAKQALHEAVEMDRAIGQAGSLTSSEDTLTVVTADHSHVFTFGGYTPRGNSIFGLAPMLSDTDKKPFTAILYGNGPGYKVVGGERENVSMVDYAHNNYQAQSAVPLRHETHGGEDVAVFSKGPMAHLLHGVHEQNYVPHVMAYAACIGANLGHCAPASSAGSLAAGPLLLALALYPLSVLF

CAAX prenyl protease 2 = CAAX prenyl protease 2 (Homo sapiens, UniProt Q9Y256); test: human Rce1 protease inhibitors, dose response, biochemical, yeast membranes, quenched-peptide fluorescence, cherry-pick (AID 588849)
Cytochrome P450 2C9 = Cytochrome P450 2C9 (Homo sapiens, UniProt P11712)
Trypsin = Trypsin (Sus scrofa, UniProt P00761); test: porcine trypsin inhibitors, dose response, selectivity assay for Rce1 protease inhibitor project, biochemical, quenched peptide fluorescence, cherry-pick (AID 488789)
Mu-type opioid receptor = Mu-type opioid receptor (Homo sapiens, UniProt P35372); test: (§1) Counterscreen for agonists of heterodimerization of the mu 1 (OPRM1) and delta 1 (OPRD1) opioid receptors: Luminescence-based cell-based high throughput dose response assay to identify agonists of OPRM1 homodimerization.; assay type: functional
[11] = molecular target: 5-hydroxytryptamine receptor 5A (Homo sapiens, UniProt P47898); test: Counterscreen for agonists of OPRM1-OPRD1 heterodimerization: luminescence-based cell-based high throughput dose response assay to identify agonists of 5-hydroxytryptamine (serotonin) 5A receptor (HTR5A). [Related pubchem assays (depositor defined):AID504326, AID504355, AID504692, AID504904, AID504905]; assay type: functional
[12] = molecular target: T3, Short transient receptor potential channel 4 (Mus musculus, UniProt Q9QUQ5); test: mouse TRPC4 channel activators, dose response, cell-based, HEK293 TRPC4/mu-opioid, Fluo-4 calcium (AID 434937); assay type: functional
T3 sequence (Q9QUQ5 whole entry): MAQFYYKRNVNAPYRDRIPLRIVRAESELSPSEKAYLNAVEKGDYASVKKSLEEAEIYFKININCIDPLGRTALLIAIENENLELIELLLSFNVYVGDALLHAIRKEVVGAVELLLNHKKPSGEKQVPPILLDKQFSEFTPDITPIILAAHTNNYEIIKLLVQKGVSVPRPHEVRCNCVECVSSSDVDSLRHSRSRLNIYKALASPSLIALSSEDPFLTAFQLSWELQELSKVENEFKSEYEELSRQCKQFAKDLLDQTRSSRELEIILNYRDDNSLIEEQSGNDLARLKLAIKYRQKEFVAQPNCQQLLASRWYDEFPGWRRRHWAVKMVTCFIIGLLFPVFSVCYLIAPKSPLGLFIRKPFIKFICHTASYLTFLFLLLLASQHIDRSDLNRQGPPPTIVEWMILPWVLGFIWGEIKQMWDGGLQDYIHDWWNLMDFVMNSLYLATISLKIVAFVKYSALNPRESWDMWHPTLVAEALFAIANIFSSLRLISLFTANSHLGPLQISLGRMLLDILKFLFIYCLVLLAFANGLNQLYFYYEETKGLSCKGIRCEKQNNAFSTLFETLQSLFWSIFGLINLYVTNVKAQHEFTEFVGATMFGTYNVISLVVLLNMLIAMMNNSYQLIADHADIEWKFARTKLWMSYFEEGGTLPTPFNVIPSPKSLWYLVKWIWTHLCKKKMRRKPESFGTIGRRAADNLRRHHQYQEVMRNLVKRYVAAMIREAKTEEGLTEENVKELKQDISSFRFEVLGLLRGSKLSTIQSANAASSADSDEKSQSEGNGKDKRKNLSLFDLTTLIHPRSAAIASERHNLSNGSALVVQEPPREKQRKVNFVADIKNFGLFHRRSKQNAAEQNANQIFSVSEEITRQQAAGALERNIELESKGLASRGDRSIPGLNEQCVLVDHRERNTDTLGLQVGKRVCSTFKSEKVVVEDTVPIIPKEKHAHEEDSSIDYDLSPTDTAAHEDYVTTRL

[13] = molecular target: Delta-type opioid receptor (Homo sapiens, UniProt P41143); test: as §1, with “of OPRD1” for “of OPRM1”, “homodimerization. [Related pubchem assays (depositor defined):AID504326, AID504355, AID504692, AID504904, AID504905]” for “homodimerization.”; assay type: functional
[14] = molecular target: T4, Ubiquitin-conjugating enzyme E2 N (Homo sapiens, UniProt P61088); assay type: functional
T4 sequence (P61088 whole entry): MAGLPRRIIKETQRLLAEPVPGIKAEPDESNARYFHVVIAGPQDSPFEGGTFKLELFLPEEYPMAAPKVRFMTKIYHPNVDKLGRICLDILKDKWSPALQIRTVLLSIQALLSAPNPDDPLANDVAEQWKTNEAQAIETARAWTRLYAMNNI

Bcl-2-related protein A1 = molecular target: T5, Bcl-2-related protein A1 (Mus musculus, UniProt Q07440); assay type: functional;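 further: confirmatory dose–response counterscreen on Bfl-1, used to check hits from a UBC13 polyubiquitin inhibitor campaign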
T5 sequence (Q07440 whole entry): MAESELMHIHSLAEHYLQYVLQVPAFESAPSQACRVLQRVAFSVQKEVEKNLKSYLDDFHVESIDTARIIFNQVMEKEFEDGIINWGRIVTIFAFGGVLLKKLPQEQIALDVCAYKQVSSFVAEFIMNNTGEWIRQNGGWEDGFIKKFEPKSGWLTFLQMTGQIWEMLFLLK

[15] = molecular target: T4, Ubiquitin-conjugating enzyme E2 N; assay type: functional; remark: listed apart in the source
[16] = THP-1 cell cytotoxicity, dose response, cytotoxicity control for non-replicating M. tuberculosis project (AID 489025); assay type: functional
[17] = Luminescence Cell-Based Dose Retest to Confirm Inhibitors of Cancer Stem Cells. [Related pubchem assays (depositor defined):AID2717, AID2721]; assay type: functional; details: Homo sapiens
A-375 [18] = test: A375 melanoma cell viability reduction, dose response, counter-screen for MITF modulator project, cherry-pick samples, set 2 (AID 540335); assay type: functional, cell-based; details: Homo sapiens
A-375 [19] = test: MITF: Counter assay: A375 proliferation Measured in Cell-Based System Using Plate Reader - 2084-03_Inhibitor_Dose_DryPowder_Activity. [Related pubchem assays (depositor defined):AID488944]; assay type: functional; details: Homo sapiens
cells = assay type: functional
[20] = molecular target: T6, Microphthalmia-associated transcription factor (Homo sapiens, UniProt O75030); test: TRPM1 promoter luciferase signal decrease, dose response, MITF inhibitor project, cell-based, SK-MEL-5, cherry-picked, set 3 (AID 493073); assay type: functional
T6 sequence (O75030 whole entry): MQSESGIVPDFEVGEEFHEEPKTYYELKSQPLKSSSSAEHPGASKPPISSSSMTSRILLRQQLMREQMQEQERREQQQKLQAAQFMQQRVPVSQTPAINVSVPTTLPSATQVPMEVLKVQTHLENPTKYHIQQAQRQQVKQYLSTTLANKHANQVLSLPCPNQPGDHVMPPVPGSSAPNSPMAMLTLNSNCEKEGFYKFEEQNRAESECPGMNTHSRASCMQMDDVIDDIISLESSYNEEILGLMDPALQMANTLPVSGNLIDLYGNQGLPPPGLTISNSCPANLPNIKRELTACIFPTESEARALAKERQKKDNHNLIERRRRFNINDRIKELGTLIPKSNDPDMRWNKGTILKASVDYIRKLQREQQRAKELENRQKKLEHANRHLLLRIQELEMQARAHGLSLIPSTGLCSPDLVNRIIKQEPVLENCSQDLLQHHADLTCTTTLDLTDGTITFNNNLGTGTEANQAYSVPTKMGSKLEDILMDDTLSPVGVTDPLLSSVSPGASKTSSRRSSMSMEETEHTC

[21] = molecular target: Voltage-gated inwardly rectifying potassium channel KCNH2 (Homo sapiens, UniProt Q12809); details: Potency;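 further: confirmatory quantitative high-throughput screen measuring inhibition of hERG channel activity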
Chain of Voltage-gated inwardly rectifying potassium channel KCNH2 (Q12809 whole entry): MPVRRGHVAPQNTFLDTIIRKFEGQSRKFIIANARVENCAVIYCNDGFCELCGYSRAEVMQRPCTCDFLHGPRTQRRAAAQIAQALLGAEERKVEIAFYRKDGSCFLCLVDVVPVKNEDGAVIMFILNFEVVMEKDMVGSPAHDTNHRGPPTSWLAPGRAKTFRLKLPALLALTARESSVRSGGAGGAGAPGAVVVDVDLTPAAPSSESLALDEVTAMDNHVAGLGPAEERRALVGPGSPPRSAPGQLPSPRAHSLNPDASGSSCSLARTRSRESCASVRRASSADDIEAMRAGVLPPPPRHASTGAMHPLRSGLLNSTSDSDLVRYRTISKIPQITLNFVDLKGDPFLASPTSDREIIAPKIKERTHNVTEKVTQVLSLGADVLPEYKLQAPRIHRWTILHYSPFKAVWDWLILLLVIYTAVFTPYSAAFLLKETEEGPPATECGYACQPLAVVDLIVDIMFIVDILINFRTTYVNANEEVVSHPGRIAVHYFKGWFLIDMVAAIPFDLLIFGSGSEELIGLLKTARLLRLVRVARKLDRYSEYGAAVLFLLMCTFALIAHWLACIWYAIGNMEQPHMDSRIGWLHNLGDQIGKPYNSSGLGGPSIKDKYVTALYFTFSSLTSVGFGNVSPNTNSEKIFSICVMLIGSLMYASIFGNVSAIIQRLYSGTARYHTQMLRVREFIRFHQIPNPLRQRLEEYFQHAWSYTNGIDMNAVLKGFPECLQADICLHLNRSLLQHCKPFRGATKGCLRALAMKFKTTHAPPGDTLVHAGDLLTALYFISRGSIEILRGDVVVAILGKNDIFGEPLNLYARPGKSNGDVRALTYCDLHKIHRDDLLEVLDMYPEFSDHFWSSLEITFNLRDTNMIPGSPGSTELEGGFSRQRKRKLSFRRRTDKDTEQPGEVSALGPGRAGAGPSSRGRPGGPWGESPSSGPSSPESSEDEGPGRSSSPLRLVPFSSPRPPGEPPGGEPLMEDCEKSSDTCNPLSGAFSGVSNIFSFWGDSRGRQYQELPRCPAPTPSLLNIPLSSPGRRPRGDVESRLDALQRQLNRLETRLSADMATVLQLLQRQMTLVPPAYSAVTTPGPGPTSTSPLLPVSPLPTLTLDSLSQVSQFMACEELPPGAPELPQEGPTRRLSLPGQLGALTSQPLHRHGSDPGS

T1 sequence (P09923 whole entry): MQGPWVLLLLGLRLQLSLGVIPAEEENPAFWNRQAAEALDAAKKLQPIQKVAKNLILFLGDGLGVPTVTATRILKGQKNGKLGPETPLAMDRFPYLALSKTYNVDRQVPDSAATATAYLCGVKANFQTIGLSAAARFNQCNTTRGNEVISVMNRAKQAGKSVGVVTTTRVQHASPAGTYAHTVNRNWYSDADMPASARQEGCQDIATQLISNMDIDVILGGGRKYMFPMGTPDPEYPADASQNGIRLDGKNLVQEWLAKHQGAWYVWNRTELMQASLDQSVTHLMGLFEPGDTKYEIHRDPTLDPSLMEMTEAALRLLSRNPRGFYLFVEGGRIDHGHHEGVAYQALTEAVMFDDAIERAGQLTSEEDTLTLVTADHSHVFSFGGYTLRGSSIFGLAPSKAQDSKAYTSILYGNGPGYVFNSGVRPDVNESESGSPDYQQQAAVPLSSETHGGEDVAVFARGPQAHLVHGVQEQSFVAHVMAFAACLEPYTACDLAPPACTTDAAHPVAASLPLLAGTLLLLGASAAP
Chain of Delta-type opioid receptor (P41143 whole entry): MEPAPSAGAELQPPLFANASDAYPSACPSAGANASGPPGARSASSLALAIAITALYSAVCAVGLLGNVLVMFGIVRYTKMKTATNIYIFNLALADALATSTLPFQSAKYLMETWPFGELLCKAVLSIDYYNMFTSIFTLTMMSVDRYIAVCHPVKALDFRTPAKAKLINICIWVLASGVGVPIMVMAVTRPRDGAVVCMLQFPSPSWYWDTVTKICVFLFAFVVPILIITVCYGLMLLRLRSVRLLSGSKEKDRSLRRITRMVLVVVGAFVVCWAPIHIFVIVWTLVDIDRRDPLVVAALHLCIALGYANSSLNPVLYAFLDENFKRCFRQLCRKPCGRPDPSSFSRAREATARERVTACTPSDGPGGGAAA
Chain of Intestinal-type alkaline phosphatase (Mus musculus, UniProt P24822) (P24822 whole entry): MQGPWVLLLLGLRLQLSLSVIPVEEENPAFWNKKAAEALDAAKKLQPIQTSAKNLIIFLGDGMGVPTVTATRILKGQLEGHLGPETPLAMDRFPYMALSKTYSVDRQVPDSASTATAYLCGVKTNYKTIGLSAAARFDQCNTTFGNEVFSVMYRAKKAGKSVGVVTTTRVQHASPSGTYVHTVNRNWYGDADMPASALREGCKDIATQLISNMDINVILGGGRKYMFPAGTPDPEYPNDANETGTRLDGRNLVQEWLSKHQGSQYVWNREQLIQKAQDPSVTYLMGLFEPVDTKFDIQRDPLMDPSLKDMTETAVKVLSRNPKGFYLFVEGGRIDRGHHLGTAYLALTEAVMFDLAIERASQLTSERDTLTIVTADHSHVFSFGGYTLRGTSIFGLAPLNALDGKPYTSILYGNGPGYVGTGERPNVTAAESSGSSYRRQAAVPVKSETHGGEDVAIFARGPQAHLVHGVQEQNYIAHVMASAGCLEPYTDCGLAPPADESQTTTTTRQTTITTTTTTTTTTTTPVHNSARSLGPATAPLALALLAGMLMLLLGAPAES
Chain of CAAX prenyl protease 2 (Q9Y256 whole entry): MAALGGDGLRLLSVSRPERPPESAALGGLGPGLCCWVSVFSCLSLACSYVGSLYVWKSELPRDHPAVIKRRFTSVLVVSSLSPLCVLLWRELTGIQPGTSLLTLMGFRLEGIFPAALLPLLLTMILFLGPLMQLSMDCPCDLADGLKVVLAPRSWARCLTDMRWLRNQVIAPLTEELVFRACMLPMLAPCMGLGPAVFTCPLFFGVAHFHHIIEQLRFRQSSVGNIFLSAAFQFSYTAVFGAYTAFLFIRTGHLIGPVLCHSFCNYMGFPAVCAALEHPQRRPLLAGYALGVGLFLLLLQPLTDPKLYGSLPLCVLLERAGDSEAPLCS
Chain of 5-hydroxytryptamine receptor 5A (P47898 whole entry): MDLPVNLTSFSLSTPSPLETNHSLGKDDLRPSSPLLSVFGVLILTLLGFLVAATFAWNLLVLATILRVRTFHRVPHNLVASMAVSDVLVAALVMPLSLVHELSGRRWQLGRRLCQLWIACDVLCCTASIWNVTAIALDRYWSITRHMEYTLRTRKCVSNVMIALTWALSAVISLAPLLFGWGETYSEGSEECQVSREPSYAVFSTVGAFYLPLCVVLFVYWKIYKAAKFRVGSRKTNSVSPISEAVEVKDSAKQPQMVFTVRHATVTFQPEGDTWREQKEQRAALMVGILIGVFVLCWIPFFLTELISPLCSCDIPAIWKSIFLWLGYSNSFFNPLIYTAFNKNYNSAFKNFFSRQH
Chain of Trypsin (P00761 whole entry): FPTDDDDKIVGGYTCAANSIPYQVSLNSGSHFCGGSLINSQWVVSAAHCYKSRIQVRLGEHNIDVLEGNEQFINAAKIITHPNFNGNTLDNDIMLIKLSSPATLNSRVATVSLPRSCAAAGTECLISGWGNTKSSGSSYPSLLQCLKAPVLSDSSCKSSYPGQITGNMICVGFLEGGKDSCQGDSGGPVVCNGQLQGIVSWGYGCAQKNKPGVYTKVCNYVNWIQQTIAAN
Chain of Mu-type opioid receptor (P35372 whole entry): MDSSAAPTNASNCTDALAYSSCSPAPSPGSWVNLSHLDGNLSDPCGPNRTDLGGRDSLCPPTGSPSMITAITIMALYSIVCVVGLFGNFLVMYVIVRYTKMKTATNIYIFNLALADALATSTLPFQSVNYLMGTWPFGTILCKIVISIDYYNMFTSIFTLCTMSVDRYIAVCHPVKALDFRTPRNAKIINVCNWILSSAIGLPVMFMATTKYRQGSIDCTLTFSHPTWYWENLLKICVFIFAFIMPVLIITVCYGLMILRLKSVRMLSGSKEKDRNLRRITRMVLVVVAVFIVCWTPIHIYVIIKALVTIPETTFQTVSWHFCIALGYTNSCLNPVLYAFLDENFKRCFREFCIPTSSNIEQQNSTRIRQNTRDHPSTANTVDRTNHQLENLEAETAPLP
Chain of Cytochrome P450 2C9 (P11712 whole entry): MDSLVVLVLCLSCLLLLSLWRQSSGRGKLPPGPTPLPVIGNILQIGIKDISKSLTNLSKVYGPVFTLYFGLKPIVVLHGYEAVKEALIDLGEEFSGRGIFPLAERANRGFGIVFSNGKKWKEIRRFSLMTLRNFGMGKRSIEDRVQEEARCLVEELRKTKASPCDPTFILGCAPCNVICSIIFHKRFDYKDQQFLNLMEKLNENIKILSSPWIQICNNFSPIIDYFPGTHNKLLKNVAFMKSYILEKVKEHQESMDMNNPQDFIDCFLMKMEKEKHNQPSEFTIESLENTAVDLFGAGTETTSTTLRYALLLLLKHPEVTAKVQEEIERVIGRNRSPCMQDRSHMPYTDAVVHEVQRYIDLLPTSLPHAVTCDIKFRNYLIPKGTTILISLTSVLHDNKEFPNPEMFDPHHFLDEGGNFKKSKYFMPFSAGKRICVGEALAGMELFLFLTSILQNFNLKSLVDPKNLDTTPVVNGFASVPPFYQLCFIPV

CCCNC(=O)c1ccccc1NC(=O)c1ccccc1N(C)S(=O)(=O)c1ccccc1
AC50 [1]: 3.19 µM (active)
AC50 [2]: 3.2 µM (active)
EC50 (HEK293 [3]): > 59.6 µM (inactive)
EC50 (HEK293 [4]): > 59.6 µM (inactive)
AC50 [5]: 1.83 µM (active)
AC50 [6]: 8.47 µM (active)

COc1ccccc1CN1CCC(n2nccc2NC(=O)CCCc2ccccc2)CC1
EC50 [7]: 60.4 µM (active)
EC50 [8]: 51.3 µM (active)
EC50 [9]: 74 µM (active)
EC50 [10]: 75.8 µM (active)

O=C1CCCN1CC(O)CS(=O)(=O)c1ccccc1 (centres undefined)
AC50 (CAAX prenyl protease 2): 17.7 µM (active)
AC50 (Cytochrome P450 2C9): inconclusive
AC50 (Trypsin): 1.72 µM (active)

CN(C)C(CNC(=O)c1cnc(Cl)c(Cl)c1)c1ccccc1 (centres undefined)
EC50 (Mu-type opioid receptor): 4.67 µM (active)
EC50 [11]: > 92.4 µM (inactive)
EC50 [12]: 0.0173 µM (active)
EC50 [13]: 1.07 µM (active)

CCCCn1c(=O)c(C(=O)Nc2ccccc2S(N)(=O)=O)c(O)c2ccccc21
IC50 [14]: > 20 µM (inactive)
IC50 (Bcl-2-related protein A1): 2.02 µM (active)
IC50 [15]: 15.5 µM (active)

CC(C)c1ccc(N2C(=O)NC(=O)/C(=C/C=C/c3ccco3)C2=O)cc1
CC50 [16]: 31.6 µM (active)
AC50 [17]: 1.81 µM (active)
AC50 (A-375 [18]): > 35 µM (active)
EC50 (HEK293 [3]): > 59.6 µM (inactive)
AC50 (A-375 [19]): > 35 µM (active)
IC50 (cells): 17.4 µM (active)
AC50 [20]: 5.89 µM (active)
EC50 (HEK293 [4]): > 59.6 µM (inactive)

CC(C)(C=O)Cc1cc(C(C)(C)C)c(O)c(C(C)(C)C)c1
AC50 [21]: 35.5 µM (inconclusive)

From ChEMBL document CHEMBL1201862, “PubChem BioAssay data set” (2004)
